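A five-concentration, 48-hour dose response in 96-well plates underlies each endpoint, interpolated linearly between surrounding concentrations. GI50: concentration for 50% inhibition of growth.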 Active and inactive are the calls of the source. No stated cut-off is given here; in the data, active = GI50 up to about 1.1 µM and inactive = higher.
Key:
Test in all cases: NCI tumour cell line growth inhibition, 48 h
[1] = tested on: 786-0
[2] = tested on: HCC 2998
[3] = tested on: HCT-116
[4] = tested on: HT-29
[5] = tested on: K562
[6] = tested on: KM12
[7] = tested on: LOX IMVI
[8] = tested on: M14
[9] = tested on: NCI-H460
[10] = tested on: OVCAR-3
[11] = tested on: SF-268
[12] = tested on: SF-295
[13] = tested on: SK-MEL-28
[14] = tested on: SK-MEL-2
[15] = tested on: UACC-257
[16] = tested on: A498

Measured: GI50

CC/C(=N/O)c1ccc2[nH]c3c(C)cc([N+](=O)[O-])c(C)c3c2c1
inactive: [1] 36 µM | [2] 83.8 µM | [3] 41.8 µM | [4] 37.4 µM | [5] 20.1 µM | [6] 37.4 µM | [7] 54.1 µM | [8] 23.6 µM | [9] 39.2 µM | [10] 36.1 µM | [11] 61.4 µM | [12] 52 µM | [13] > 100 µM | [14] > 100 µM | [15] 95.1 µM

N#CC(Sc1ccccc1)C(N)=O (stereo unspecified)
inactive: [1] > 100 µM | [16] > 100 µM | [2] > 100 µM | [3] > 100 µM | [4] > 100 µM | [5] > 100 µM | [6] > 100 µM | [7] > 100 µM | [8] > 100 µM | [9] > 10 µM | [10] > 100 µM | [11] > 100 µM | [12] > 100 µM | [15] > 100 µM

COc1ccc(CC2NCCc3cc(OC)c(OC)cc32)cc1 (stereo unspecified)
inactive: [1] > 100 µM | [2] > 100 µM | [3] > 100 µM | [4] > 100 µM | [6] > 100 µM | [7] > 100 µM | [8] > 100 µM | [9] > 100 µM | [10] > 100 µM | [11] > 100 µM | [12] > 100 µM | [13] > 100 µM | [14] > 100 µM | [15] > 100 µM

C/C=C/C1(NS(=O)(=O)c2ccc(C)cc2)CCC(C(C)(C)C)CC1 (stereo unspecified)
inactive: [1] 19 µM | [16] 24 µM | [2] 16.2 µM | [3] 20.1 µM | [4] 18 µM | [5] 35.5 µM | [6] 20.8 µM | [8] 17.3 µM | [9] 21.7 µM | [10] 17.7 µM | [11] 29.6 µM | [12] 26.2 µM | [14] 17.3 µM | [15] 25.4 µM

Nc1nc2sc3ccccc3c(=O)n2n1
inactive: [1] > 100 µM | [2] > 100 µM | [3] > 100 µM | [4] > 100 µM | [5] > 100 µM | [6] > 100 µM | [7] > 100 µM | [8] > 100 µM | [9] > 100 µM | [10] > 100 µM | [11] > 100 µM | [12] > 100 µM | [13] > 100 µM | [14] > 100 µM | [15] > 100 µM

CN[C@@H](C)[C@@H](N)c1ccccc1
inactive: [1] > 100 µM | [16] > 100 µM | [2] > 100 µM | [3] > 100 µM | [4] > 100 µM | [5] > 100 µM | [7] > 100 µM | [8] > 100 µM | [9] > 100 µM | [10] > 100 µM | [12] > 100 µM | [13] > 100 µM | [15] > 100 µM

Nc1ccc2nc(NCc3ccc(F)cc3)cnc2c1
inactive: [1] > 100 µM | [2] > 100 µM | [3] > 100 µM | [4] > 100 µM | [5] > 100 µM | [6] > 100 µM | [7] > 100 µM | [8] > 100 µM | [9] > 100 µM | [10] > 100 µM | [11] > 100 µM | [12] > 100 µM | [13] > 100 µM | [14] > 100 µM

CC1(C)C(=NNC(=S)NN)C(C)(C)C1=NNC(=S)NN
inactive: [1] > 100 µM | [2] > 100 µM | [4] > 100 µM | [5] 43.2 µM | [7] > 100 µM | [8] > 100 µM | [10] > 100 µM | [11] > 100 µM | [12] > 100 µM | [13] > 100 µM | [14] > 100 µM | [15] > 100 µM
